From patent publication US20110105540A1, “2-AMINO-9-[4-(4-METHOXY-PHENOXY)-PIPERIDIN-1-YL]-4-PHENYL-INDENO[1,2-D]PYRIMIDIN-5-ONE AND ITS USE AS A HIGHLY SELECTIVE ADENOSINE A2a RECEPTOR ANTAGONIST” (priority 2009, published 2011)

Key:
[1] = molecular target: T1, human adenosine A1 receptor (Homo sapiens, UniProt P30542); assay: Adenosine A1 Receptor Functional Assay (A1GAL2); type: cell-based; settings: CHO-K1 cells overexpressing human A1 receptor, cAMP inducible beta-galactosidase reporter, 4 nM r-PIA/1 uM Forskolin agonist challenge
T1 construct: expressed in transfected cells; host or cells: CHO-K1
T1 sequence (P30542 1-326): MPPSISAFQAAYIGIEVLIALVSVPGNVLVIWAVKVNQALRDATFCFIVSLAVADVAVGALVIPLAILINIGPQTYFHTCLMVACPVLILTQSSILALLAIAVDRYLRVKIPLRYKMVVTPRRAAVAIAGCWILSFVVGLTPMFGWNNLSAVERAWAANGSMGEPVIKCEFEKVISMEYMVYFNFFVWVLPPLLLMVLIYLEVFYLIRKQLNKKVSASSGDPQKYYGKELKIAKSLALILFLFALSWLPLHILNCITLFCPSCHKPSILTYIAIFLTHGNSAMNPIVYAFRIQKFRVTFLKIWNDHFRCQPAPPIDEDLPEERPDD
Protocol: To initiate the functional assay, cryopreserved CHO-K1 cells overexpressing the human adenosine A1 receptor and containing a cAMP inducible beta-galactosidase reporter gene were thawed, centrifuged, DMSO containing media removed, and then seeded with fresh culture media into clear 384-well tissue culture treated plates (BD #353961) at a concentration of 10K cells/well. Prior to assay, these plates were cultured for two days at 37° C., 5% CO2, 90% Rh. On the day of the functional assay, culture media was removed and replaced with 45 μL assay medium (Hams/F-12 Modified (Mediatech #10-080CV) supplemented w/0.1% BSA). Test compounds were diluted and 11 point curves created at a 1000× concentration in 100% DMSO. Immediately after addition of assay media to the cell plates, […] of the appropriate test compound antagonist or agonist control curves were added to cell plates using a Cartesian Hummingbird. Compound curves were allowed to incubate at room temperature on cell plates for approximately 15 minutes before addition of a 4 nM r-PIA (Sigma P4532)/1 uM Forskolin (Sigma F3917) agonist challenge (5 μL volume). […] Plates were counted at 405 nm on a SpectraMax Microplate Reader (Molecular Devices). Data was analyzed in Microsoft Excel and IC/EC50 curves were fit using a standardized macro.

[2] = molecular target: T2, human adenosine A2A receptor (Homo sapiens, UniProt P29274); assay: Adenosine A2A Receptor Functional Assay (A2AGAL2); type: cell-based
T2 construct: expressed in transfected cells; host or cells: CHO-K1
T2 sequence (P29274 whole entry): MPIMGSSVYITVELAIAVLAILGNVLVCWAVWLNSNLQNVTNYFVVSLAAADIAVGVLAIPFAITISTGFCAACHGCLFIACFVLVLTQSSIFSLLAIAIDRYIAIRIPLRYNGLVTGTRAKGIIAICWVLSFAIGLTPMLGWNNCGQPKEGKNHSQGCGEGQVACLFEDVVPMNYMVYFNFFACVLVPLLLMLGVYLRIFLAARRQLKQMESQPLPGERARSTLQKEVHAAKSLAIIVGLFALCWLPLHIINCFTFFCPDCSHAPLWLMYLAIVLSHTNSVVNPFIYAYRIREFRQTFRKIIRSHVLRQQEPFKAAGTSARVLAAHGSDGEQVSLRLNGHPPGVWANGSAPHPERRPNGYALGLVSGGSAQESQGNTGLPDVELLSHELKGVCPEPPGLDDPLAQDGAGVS
Protocol: To initiate the functional assay, cryopreserved CHO-K1 cells overexpressing the human adenosine A2A receptor and containing a cAMP inducible beta-galactosidase reporter gene were thawed, centrifuged, DMSO containing media removed, and then seeded with fresh culture media into clear 384-well tissue culture treated plates (BD #353961) at a concentration of 10K cells/well. Prior to assay, these plates were cultured for two days at 37° C., 5% CO2, 90% Rh. On the day of the functional assay, culture media was removed and replaced with 45 μL assay medium (Hams/F-12 Modified (Mediatech #10-080CV) supplemented w/0.1% BSA). Test compounds were diluted and 11 point curves created at a 1000× concentration in 100% DMSO. Immediately after addition of assay media to the cell plates, 50 nL of the appropriate test compound antagonist or agonist control curves were added to cell plates using a Cartesian Hummingbird. Compound curves were allowed to incubate at room temperature on cell plates for approximately 15 minutes before addition of a 15 nM NECA (Sigma E2387) agonist challenge (5 μL volume). […]
The colorimetric reaction was stopped with the addition of 60 μL/well 1M sodium carbonate. Plates were counted at 405 nm on a SpectraMax Microplate Reader (Molecular Devices). Data was analyzed in Microsoft Excel and IC/EC50 curves were fit using a standardized macro.

IC50 [1]: 7.3 µM
IC50 ([2]; CHO-K1 cells overexpressing human A2A receptor, cAMP inducible beta-galactosidase reporter, 15 nM NECA agonist challenge): 0.0023 µM
A1/A2A ([2]; ratio of A1Gal2 to A2AGal2 values (selectivity for A2A over A1)): 3173.91
Compound: COc1ccc(OC2CCN(c3cccc4c3-c3nc(N)nc(-c5ccccc5)c3C4=O)CC2)cc1 [Example A, 2-Amino-9-[4-(4-methoxy-phenoxy)-piperidin-1-yl]-4-phenyl-indeno[1,2-d]pyrimidin-5-one]
